Test results from patent publication US20050227995A1, “Phenyl sulfoxides and phenyl sulfones” (priority 2002, published 2005).

System: Aβ release from human cell lines (H4, HEK293) stably overexpressing human APP695 with Swedish double mutation
Assay: Determination of the inhibition of A-beta release in cell culture (IGEN analyzer detection)
Format: cell-based
Settings: H4/HEK293 cells overexpressing human APP695 Swedish mutant; supernatant analyzed after 16 h; 0.5% DMSO
From the text: Determination of the Inhibition of A-Beta Release in Cell Culture
In order to be able to measure the inhibition of Aβ release, human cell lines (H4, HEK293) which stably overexpress the 695 amino acid-long, neuronal splice variant of human APP were generated. In order to increase the generated Aβ amount further, in addition a “Swedish” familiar Alzheimer's double mutation in which the lysine and methionine residues respectively at positions 595 and 596 of the molecule APP695 are replaced by the amino acids asparagine and leucine was introduced. The cells were cultivated in Dulbecco's modified Eagles medium (DMEM, with 4500 mg/l glucose; 110 mg/l sodium pyruvate); 5% by volume fetal calf serum (FCS); 1% nonessential amino acids) to which the geniticin G418 selection marker had been added [all cell culture methods were carried out by standard methods; Sambrook, J., Fritsch, E. F., and Maniatis, T. (1989), Molecular cloning: A laboratory manual. Cold Spring Harbour Laboratory Press]. In order to test the effect of substances on the inhibition of APP processing, about 20 000 cells were diluted in a 96 multititer plate. The next day, the culture medium was removed and replaced by biotin- and serum-free medium, in which the substances were diluted to reach a concentration of 10 μM with a dimethyl sulfoxide (DMSO) content of 0.5%. 0.5% DMSO served as control. For substances showing inhibition of the Aβ generation, additionally dose-effect relations were investigated by using different concentrations. After 16 h, the supernatant was removed and analyzed.
b) Detection of Aβ with the IGEN Analyzer
The total amount of Aβ was detected using the following components: 50 μl of cell culture supernatant were mixed with 25 μl of biotinylated antibody 4G8 (recognizes amino acid 17-25 of Aβ), 25 μl of ruthenium complex-labeled antibody 6E10 (recognizes the N terminus of Aβ) and 50 μl of magnetic streptavidin-coupled beads. Aβ40 was detected by using the following components: 50 μl of cell culture supernatant were mixed with 25 μl of biotinylated antibody G2-10 (recognizes the C terminus of Aβ40), 25 μl of ruthenium complex-labeled antibody W02 (recognizes the N terminus of Aβ), and 50 μl of magnetic streptavidin-coupled beads. In parallel, serial dilutions were made with synthetic A040. The samples were shaken at room temperature and then measured using an IGEN analyzer. Typically, each sample was measured three times in at least two independent experiments. The antibodies and solutions used were prepared according to the instructions of the manufacturer of the analyzer, IGEN, Inc. (Gaitersburg, Md., USA). The measurement was likewise carried out as stated by the manufacturer.

Structure (SMILES)	IC50
C[C@H](COC(=O)N1CCC(CCO)CC1)[C@@H](c1cc(F)ccc1F)S(=O)(=O)c1ccc(Cl)cc1 (single isomer, unassigned) [Example 42]	10 to 100 nM
C[C@H](COC(=O)N1CCC(O)CC1)[C@@H](c1cc(F)ccc1F)S(=O)(=O)c1ccc(Cl)cc1 (single isomer, unassigned) [Example 43]	10 to 100 nM
C[C@H](COC(=O)N1CCN(C)CC1)[C@@H](c1cc(F)ccc1F)S(=O)(=O)c1ccc(Cl)cc1 (single isomer, unassigned) [Example 95]	10 to 100 nM
CC(COC(=O)N1CCNC(=O)C1)C(c1cc(F)ccc1F)S(=O)(=O)c1ccc(Br)cc1 (single isomer, unassigned) [Example 100]	10 to 100 nM
